Measured values published in PMC2823781, “The X-Ray Crystal Structure of Escherichia coli Succinic Semialdehyde Dehydrogenase; Structural Insights into NADP^+/Enzyme Interactions” (PLoS ONE, 2010).

Tests used:
[1] = biological target: T1, E. coli SSADH (gabD gene product) (Escherichia coli, UniProt P25526); assay: fluorometric NADPH formation (ex […] nm, em […] nm); format: biochemical; settings: 1.1 mM NADP+, 100 mM Na phosphate pH 8.0, 30 °C; varied substrate SSA (range printed as 0–400 mM), substrate not named beside Km
T1 construct: expressed in E. coli BL21(DE3) pLysS; homotetramer, 481 residues per monomer in crystal; single amino acid change versus database gabD, not specified

[2] = biological target: Escherichia coli succinic semialdehyde dehydrogenase (gabD gene product, NADP+-dependent) (E. coli) (UniProt P25526); assay: SEC; analytical size-exclusion chromatography of purified recombinant SSADH; data not shown

Km [1]	stoichiometry N [2]	Molecule
16.9 ± 2.2 µM		O=CCCC(=O)O [SSA, succinic semialdehyde]
	4	Escherichia coli succinic semialdehyde dehydrogenase (gabD gene product, NADP+-dependent) (from UniProt P25526 1-482) (enzyme)
